Assay results: the NIST ThermoML archive (doi:10.1016/j.fluid.2016.08.014)
± gives the expanded uncertainty stated by the source.

Experiments:
[1] = Liquid, Vibrating tube method
[2] = refractive index (Na D-line) (dimensionless); conditions: 101.33 kPa, Liquid, Standard Abbe refractometry

NCCN [ethane-1,2-diamine]
[1]
Conditions	mass density [kg/m3]
293.15 K, 200 kPa	898 ± 1
293.15 K, 2500 kPa	899 ± 1
293.15 K, 5100 kPa	900 ± 1
293.15 K, 10000 kPa	903 ± 1
293.15 K, 15400 kPa	905 ± 1
293.15 K, 19800 kPa	907 ± 1
293.15 K, 25100 kPa	909 ± 1
293.15 K, 30200 kPa	911 ± 1
298.15 K, 101.33 kPa	895.323 ± 4
303.15 K, 300 kPa	890 ± 1
303.15 K, 2500 kPa	891 ± 1
303.15 K, 5000 kPa	892 ± 1
303.15 K, 10200 kPa	893 ± 1
303.15 K, 15000 kPa	896 ± 1
303.15 K, 20500 kPa	898 ± 1
303.15 K, 25100 kPa	900 ± 1
303.15 K, 30100 kPa	902 ± 1
313.15 K, 300 kPa	880 ± 1
313.15 K, 2500 kPa	880 ± 1
313.15 K, 5100 kPa	882 ± 1
313.15 K, 10000 kPa	884 ± 1
313.15 K, 15100 kPa	887 ± 1
313.15 K, 20100 kPa	889 ± 1
313.15 K, 25400 kPa	892 ± 1
313.15 K, 30400 kPa	894 ± 1
323.15 K, 200 kPa	870 ± 1
323.15 K, 2500 kPa	870 ± 1
323.15 K, 5100 kPa	872 ± 1
323.15 K, 10000 kPa	875 ± 1
323.15 K, 15000 kPa	878 ± 1
323.15 K, 19900 kPa	880 ± 1
323.15 K, 25100 kPa	882 ± 1
323.15 K, 29700 kPa	885 ± 1
333.15 K, 200 kPa	860 ± 1
333.15 K, 2500 kPa	861 ± 1
333.15 K, 5000 kPa	863 ± 1
333.15 K, 10000 kPa	866 ± 1
333.15 K, 15000 kPa	868 ± 1
333.15 K, 20000 kPa	871 ± 1
333.15 K, 25000 kPa	874 ± 1
333.15 K, 30000 kPa	876 ± 1
343.15 K, 200 kPa	850 ± 1
343.15 K, 2500 kPa	852 ± 1
343.15 K, 5100 kPa	853 ± 1
343.15 K, 10000 kPa	856 ± 1
343.15 K, 15000 kPa	860 ± 1
343.15 K, 20000 kPa	862 ± 1
343.15 K, 25100 kPa	865 ± 1
343.15 K, 30100 kPa	867 ± 1
353.15 K, 200 kPa	840 ± 1
353.15 K, 2500 kPa	842 ± 1
353.15 K, 5000 kPa	844 ± 1
353.15 K, 10200 kPa	847 ± 1
353.15 K, 15100 kPa	850 ± 1
353.15 K, 20000 kPa	853 ± 1
353.15 K, 25100 kPa	856 ± 1
353.15 K, 30100 kPa	859 ± 1
363.15 K, 200 kPa	830 ± 1
363.15 K, 2600 kPa	832 ± 1
363.15 K, 5100 kPa	834 ± 1
363.15 K, 10100 kPa	838 ± 1
363.15 K, 15000 kPa	840 ± 1
363.15 K, 20100 kPa	844 ± 1
363.15 K, 25600 kPa	847 ± 1
363.15 K, 30000 kPa	850 ± 1
373.15 K, 200 kPa	820 ± 1
373.15 K, 2500 kPa	822 ± 1
373.15 K, 5100 kPa	825 ± 1
373.15 K, 10100 kPa	828 ± 1
373.15 K, 15000 kPa	831 ± 1
373.15 K, 20100 kPa	835 ± 1
373.15 K, 25100 kPa	838 ± 1
373.15 K, 30200 kPa	841 ± 1
383.15 K, 200 kPa	810 ± 1
383.15 K, 2500 kPa	813 ± 1
383.15 K, 5200 kPa	815 ± 1
383.15 K, 10000 kPa	818 ± 1
383.15 K, 15200 kPa	822 ± 1
383.15 K, 20500 kPa	826 ± 1
383.15 K, 25000 kPa	829 ± 1
383.15 K, 30300 kPa	832 ± 1

[2]
Conditions	refractive index
293.15 K	1.45676 ± 0.00033
298.15 K	1.45453 ± 0.00033
